Assay results as given in patent publication US12702696B2, “Methods and composition for modulating immune response and immune homeostasis” (Massachusetts Institute of Technology, priority 2019, dated 2026).
Ends that are not written are not given here.

Tests used:
[1] = system: sympathetic (TH+) and sensory (tdTomato+) fibers of LNs; assay: 6-OHDA-mediated chemical sympathectomy, sensory and sympathetic fiber density in popliteal LNs (whole-mount imaging); format: in vivo, mouse; conditions: 6-OHDA 100 mg kg-1 intraperitoneally daily for 5 days vs saline; popliteal LNs of Nav1.8Cre/+; Rosa26LSL-tdTomato/+ mice
Text: To address the interdependence between these two types of innervation, Applicants assessed the sensitivity of each type of fiber to 6-hydroxydopamine (6-OHDA)-mediated chemical sympathectomy or diphtheria toxin A (DTA)-mediated genetic ablation of Nav1.8 lineage neurons. […] Thus, Applicants unexpectedly discovered that LNs receive not only sympathetic but also sensory innervation, two categorically different types of innervation that are anatomically independent of each other.
Whole mount immunohistochemistry of LNs was performed using an iDISCO protocol with methanol pretreatment optimized for LNs (Renier et al., 2014). Briefly, adult animals (6-12 weeks) were perfused with 25 mL of PBS (Hyclone) and 25 mL of 4% paraformaldehyde (PFA, Sigma) sequentially at room temperature (RT). Peripheral lymph nodes (PLNs), including popliteal and inguinal lymph nodes (popLNs and iLNs), were postfixed with 4% PFA for 1 hr at 4° C. […]
For sympathetic denervation, the stock solution of 6-hydroxydopamine (6-OHDA) (Sigma) was prepared in water at 42 mg/mL and stored at −20° C. […] Animals were analyzed the following day.
For quantification of innervation density of LNs as in FIGS. 1C-1F, relevant channels were first masked with the LN isosurface as described above. […]

[2] = mice; GAL2 selective agonist; cited from earlier work

For `NCCc1cc(O)c(O)cc1O` [6-OHDA, 6-hydroxydopamine], the “effect on sensory innervation (tdTomato+ fiber density) of LNs” value [1] was “not compromised” and the “effect on sympathetic innervation (TH+ fiber density) of LNs” value [1] was “efficient sympathetic denervation of LNs”.
In the case of “Galanin 2-11 amide: GAL2 selective galanin receptor agonist, CAS #367518-31-8 (WTLNSAGYLL-NH2; UniProt P22466 34-43, looked up, fragment)”, the anticonvulsant activity [2] is given as “anticonvulsant in mice”.
